How the values were obtained:
Test in all cases: relative viability (nuclei count vs DMSO), 5 days (fraction); higher = more cells survive
Zosuquidar + OSI-027 = compound: O[C@@H](COc1cccc2ncccc12)CN1CCN([C@@H]2c3ccccc3[C@@H]3[C@H](c4ccccc42)C3(F)F)CC1 [Zosuquidar] + COc1cccc2cc(-c3nc([C@H]4CC[C@H](C(=O)O)CC4)n4ncnc(N)c34)[nH]c12 [OSI-027] (partner 0.5 µM)
Summary of the method: (§1)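 Lung cancer cell lines in 1536-well plates were dosed by pin tool the day after seeding, either with one drug alone or with a fixed anchor-drug dose plus five library-drug doses (not always all listed) in √10 steps. After 5 days, cells were fixed and their nuclei stained in one step (final 0.05% Triton X-100, 1% formaldehyde, 1 ug/ml Hoechst), then counted on 4× images. Relative viability is the nuclei count in treated wells divided by that in vehicle wells. Values are medians of duplicate plates.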

Kobe2602 + Luminespib = compound: C1=CC(=CC=C1NC(=S)NNC2=C(C=C(C=C2[N+](=O)[O-])C(F)(F)F)[N+](=O)[O-])F [Kobe2602] + CCNC(=O)c1noc(-c2cc(C(C)C)c(O)cc2O)c1-c1ccc(CN2CCOCC2)cc1 [Luminespib] (partner 0.01 µM)
Summary of the method: as §1

[1] = compound: COc1cc2nccc(Oc3ccc(NC(=O)C4(C(=O)Nc5ccc(F)cc5)CC4)cc3)c2cc1OC [Cabozantinib] + CC1(C)CCC(c2ccc(Cl)cc2)=C(CN2CCN(c3ccc(C(=O)NS(=O)(=O)c4ccc(N[C@H](CCN5CCOCC5)CSc5ccccc5)c(S(=O)(=O)C(F)(F)F)c4)cc3)CC2)C1 [Navitoclax] (partner 0.5 µM)
Summary of the method: as §1

Kobe2602 + Lapatinib = compound: C1=CC(=CC=C1NC(=S)NNC2=C(C=C(C=C2[N+](=O)[O-])C(F)(F)F)[N+](=O)[O-])F [Kobe2602] + CS(=O)(=O)CCNCc1ccc(-c2ccc3ncnc(Nc4ccc(OCc5cccc(F)c5)c(Cl)c4)c3c2)o1 [Lapatinib] (partner 2 µM)
Summary of the method: as §1

Row | Cell Line | relative viability (Zosuquidar + OSI-027; first compound 0.01 µM) | relative viability (Zosuquidar + OSI-027; first compound 0.03162 µM) | relative viability (Zosuquidar + OSI-027; first compound 0.1 µM) | relative viability (Zosuquidar + OSI-027; first compound 0.3162 µM) | relative viability (Zosuquidar + OSI-027; first compound 1 µM) | relative viability (Kobe2602 + Luminespib; first compound 0.2 µM) | relative viability (Kobe2602 + Luminespib; first compound 0.6325 µM) | relative viability (Kobe2602 + Luminespib; first compound 2 µM) | relative viability (Kobe2602 + Luminespib; first compound 6.325 µM) | relative viability (Kobe2602 + Luminespib; first compound 20 µM) | relative viability ([1]; first compound 0.02 µM) | relative viability ([1]; first compound 0.06325 µM) | relative viability ([1]; first compound 0.2 µM) | relative viability ([1]; first compound 0.6325 µM) | relative viability ([1]; first compound 2 µM) | relative viability (Kobe2602 + Lapatinib; first compound 0.2 µM) | relative viability (Kobe2602 + Lapatinib; first compound 0.6325 µM) | relative viability (Kobe2602 + Lapatinib; first compound 2 µM) | relative viability (Kobe2602 + Lapatinib; first compound 6.325 µM) | relative viability (Kobe2602 + Lapatinib; first compound 20 µM)
1 | NCI-H2009 | 0.64 | 0.684 | 0.529 | 0.782 | 0.645 | 1.04 | 1.1 | 1.07 | 1.09 | 0.964 | 1.25 | 1.19 | 1.21 | 1.18 | 1.2 | 0.878 | 1.14 | 0.895 | 1.04 | 0.871
2 | RERF-LC-KJ | 0.543 | 0.565 | 0.634 | 0.691 | 0.623 | 1.12 | 1.17 | 1.2 | 1.03 | 0.515 | 1.06 | 1.08 | 0.948 | 0.866 | 0.921 | 0.851 | 0.842 | 0.809 | 0.697 | 0.831
3 | NCI-H2085 | 0.707 | 0.779 | 0.468 | 0.84 | 0.746 | 0.393 | 0.466 | – | 0.478 | 0.436 | 1.16 | 1.17 | 1.15 | 1.21 | 1.06 | 0.749 | 0.751 | 0.779 | 0.776 | 0.879
4 | NCI-H1792 | 0.786 | 0.601 | – | 0.837 | 0.753 | 0.319 | 0.58 | 0.47 | 0.558 | 0.517 | 0.59 | 0.967 | 0.555 | 0.637 | 0.589 | 0.963 | 0.878 | 0.992 | 0.928 | 0.978
5 | NCI-H2405 | 0.67 | 0.656 | 0.503 | 0.713 | 0.631 | 0.674 | 0.694 | 0.73 | 0.771 | 0.719 | – | 1.09 | 0.881 | 0.787 | 0.856 | 1.05 | 1.17 | 1.01 | 1.2 | 1.33
6 | 201T | 0.777 | 0.722 | 0.646 | 0.803 | 0.741 | 1.02 | 1.05 | 0.993 | 1.14 | 0.966 | 1.2 | 1.25 | 1.19 | 1.2 | 1.24 | 0.986 | 1.1 | 1.07 | 1.01 | 1.04
7 | NCI-H1755 | 0.736 | 0.67 | 0.516 | 0.821 | 0.722 | 0.334 | 0.425 | 0.414 | 0.395 | 0.322 | 1 | 1.07 | 0.972 | 0.87 | 0.807 | 1.01 | 1.03 | 0.951 | 1.02 | 1.09
8 | NCI-H1651 | 0.78 | 0.694 | 0.633 | 0.657 | 0.725 | 0.673 | 0.911 | 0.642 | 0.758 | 0.93 | 1.19 | 1.03 | 1.15 | 0.974 | 0.928 | 0.871 | 0.981 | 0.836 | 0.775 | 0.764

— the supplement of paper PMC10307832
